# Reference: publication PMC4122966, “Novel VCP modulators mitigate major pathologies of rd10, a mouse model of retinitis pigmentosa” (Scientific Reports, 2014)
# Where “and” joins values, the source holds several entries; their conditions need not be identical. Equal entries are not always repeated.
# Key:
# HeLa cells [1] = test: cell death-inducing activity; type: cell-based; conditions: 50 μM, 24 hours
# Excerpt: (§1) Figure 1 Structures and characterization of KUSs, novel VCP modulators. (a) Structures and IC50 values of KUS11, KUS31, KUS69, KUS94, KUS121, and KUS187. […] (b) ATPase activity assays of recombinant human […], comparing KUSs and DBeQ. (c) Immunoblot analysis of ubiquitinated proteins, an ER stress marker (CHOP), and an autophagy indicator (LC3), comparing KUSs and DBeQ. As a control, MG132, a proteasome inhibitor, was used for the analysis. Actin served as a loading control. Complete scans of the different blots are presented in Supplementary Fig. 7. (d) Comparison of KUSs and DBeQ for cell death-inducing activities. HeLa cells were treated with 50 μM DBeQ or KUSs for 24 hours. […]
# cellular VCP functions = test: immunoblot of ubiquitinated proteins, CHOP (ER stress) and LC3 (autophagy) in cultured cells; type: cell-based
# Excerpt: as §1
# C57BL/6 wild-type mice = test: electroretinogram of adult wild-type mice administered KUS; type: in vivo, mouse
# Protocol: Electroretinogram recording was performed to assess the visual function of rd10 mice at ages of 21, 25, 29, and 33 days. Mice were dark-adapted overnight before anesthetization. Electroretinograms were recorded using a gold loop corneal electrode with a light-emitting diode (Mayo Corp., Inazawa, Japan). A reference electrode was placed in the mouth and a ground electrode was inserted to the anus. Stimuli were produced with a light emitting diode stimulator (Mayo Corp.). The electroretinogram response signals were amplified, digitized at 10 kHz with a band-pass filter of 0.3 to 500 Hz, and analyzed (PowerLab 2/25; AD instruments, New South Wales, Australia). The a- and b-wave amplitudes and a-wave latency of the mixed cone and rod response (ISCEV (International Society for Clinical Electrophysiology of Vision) standard; scotopic 3.0)[34] were analyzed.
# Supplementary Figure 6 (a) Time-dependent changes of b-wave amplitude in dark-adapted electroretinograms in non-treated C57BL/6 wild-type mice. b-wave […]
# = 0.004. (b, c) a-wave (b) and b-wave (c) amplitude of adult C57BL/6 wild-type mice administered saline or KUS121 for 7 days. […]
# amplitudes of a-and b-waves between mice administered saline or KUS121 (a-wave […]
# 92.9 vs. 420.8 ± 52.6, P = 0.86, t-test). Error bars indicate SD.
# Lane 1, 1µM MG132; lane 2, control; lane 3, 5µM DBeQ; lane 4, 10µM DBeQ; lane 5, 15µM DBeQ; lane 6: KUS11; lane 7, KUS31; lane 8, KUS69; lane 9, KUS 94; lane 10, […]
# Lane 1, Tm(-); lane 2, control; lane 3, KUS69; lane 4, KUS94; lane 5, KUS121; lane 6, KUS187; lane 7, Tm(-); lane 8, control; lane 9, 0.1mM ATP; lane 10, 0.3mM ATP; lane 11, 1mM ATP; lane 12, 3mM methylpyruvate; lane 13, 10mM methylpyruvate.
# recombinant VCP = recombinant VCP (Homo sapiens, UniProt P55072); test: ATPase activity of recombinant VCP in vitro (modified molybdate assay, [γ-32P]ATP); type: biochemical
# Protocol: We measured ATPase activities by modifying the molybdate assay, which was as described previously. In the assay, 1 μg of whole cell soluble lysate of neuronally differentiated PC12 cells, or 500 ng recombinant VCP protein, was incubated in 20 μl of the ATPase assay buffer (20 mM HEPES (pH 7.4), 50 mM KCl, 5 mM MgCl2) with 100 μM [γ-^32P]ATP (18.5 GBq/mmol) (PerkinElmer) at 37°C for 20 min. After incubation, the reaction was quenched by addition of 200 μl of 8% ice-cold trichloroacetic acid solution with 1 mM K2HPO4, and then 50 μl of solution A (3.75% ammonium molybdate, 0.02 M silicotungstic acid in 3 N H2SO4) and 300 μl of n-butyl acetate were added to the reaction. The samples were mixed well and centrifuged at 12,000 × g for 1 min. Then, 200 μl aliquots from the upper organic phases were taken and their radioactivity was determined with a liquid scintillation counter for β-radiation, which determined the amounts of ^32P released.
# HeLa cells [2] = test: protection from cell death in low glucose medium (WST); type: cell-based; conditions: low glucose 0.2 g/l, 5, 10, 20, and 50 μM, 41 hours
# Protocol: Figure 2 Prevention of cell death and ER stress by KUSs. (a) Photographs of HeLa cells, cultured with DMSO (DMSO) or KUSs (KUS94, KUS121, and KUS187, 20 μM each) for 41 hours in low glucose (0.2 g/l) medium. Scale bar, 100 μm. (b–e) WST (water-soluble tetrazolium salts) values reflecting relative live cell numbers are shown, as optical density (OD) at 450 nm. Error bars indicate SD. (b) WST values of HeLa cells, cultured in low glucose (0.2 g/l) with DMSO (control) or KUSs (50 μM for KUS121; 20 μM for KUS69, KUS94, and KUS187, n = 3) for 41 hours. (c) Cell viability, indicated by WST values of HeLa cells, cultured with tunicamycin (Tm) (0.2 μg/ml) for 41 hours with KUSs (20 μM each, n = 3). […]
# HeLa, HEK293, and PC12 cells were cultured in Dulbecco's modified Eagle's medium (DMEM) with 10% fetal bovine serum. […] Viability of cultured cells was measured by formazan production with an ARVO multilabel counter (Wallac), using WST (water soluble tetrazolium salts)-8 reagent (Cell count reagent SF, Nacalai Tesque, Kyoto, Japan). ATP in cultured cells was measured by luciferase activities with an ARVO multilabel counter, using ATP assay reagent for cells (Toyo B-net, Tokyo, Japan). Acetyl-CoA was measured using a PicoProbe Acetyl CoA assay kit (BioVision, CA, USA) with a Spectra Max multilabel counter (Molecular Devices, CA, USA).
# Chain of recombinant VCP (P55072 whole entry, species assumed): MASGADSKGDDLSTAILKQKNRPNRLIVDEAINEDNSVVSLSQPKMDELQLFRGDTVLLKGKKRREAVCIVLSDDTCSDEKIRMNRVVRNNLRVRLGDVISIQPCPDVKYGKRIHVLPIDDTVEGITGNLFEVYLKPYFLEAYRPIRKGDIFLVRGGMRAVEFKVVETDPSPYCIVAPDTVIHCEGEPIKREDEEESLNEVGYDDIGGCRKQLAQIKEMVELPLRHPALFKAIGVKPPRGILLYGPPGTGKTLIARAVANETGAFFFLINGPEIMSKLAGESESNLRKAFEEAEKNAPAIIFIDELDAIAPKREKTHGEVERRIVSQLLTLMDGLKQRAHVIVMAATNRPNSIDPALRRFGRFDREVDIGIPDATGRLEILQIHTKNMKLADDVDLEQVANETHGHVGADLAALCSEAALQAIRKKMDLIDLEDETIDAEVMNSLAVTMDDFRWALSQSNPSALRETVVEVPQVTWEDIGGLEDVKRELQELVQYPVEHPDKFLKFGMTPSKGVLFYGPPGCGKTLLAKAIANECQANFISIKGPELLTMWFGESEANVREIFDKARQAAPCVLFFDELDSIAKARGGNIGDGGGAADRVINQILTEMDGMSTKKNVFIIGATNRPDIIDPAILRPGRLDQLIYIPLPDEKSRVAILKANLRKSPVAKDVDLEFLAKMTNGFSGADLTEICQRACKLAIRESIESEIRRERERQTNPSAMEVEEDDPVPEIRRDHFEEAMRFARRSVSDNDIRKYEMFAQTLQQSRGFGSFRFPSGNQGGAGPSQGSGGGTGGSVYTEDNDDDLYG
smiles,measurement,setting,value
Cc1cc(F)ccc1-c1ccc(/N=N/c2cc(S(=O)(=O)O)c3ccccc3c2N)cn1 [KUS121],induction of cell death,HeLa cells [1],did not induce any of these phenotypes
same,"induction of accumulation of ubiquitinated proteins, ER stress (CHOP), autophagy (LC3)",cellular VCP functions,did not induce any of these phenotypes
same,a-wave amplitude,"C57BL/6 wild-type mice; adult C57BL/6 wild-type mice, KUS121 for 7 days, saline 203.5 ± 41.6, P = 0.56, in µV (unit assumed)",195.8 ± 30.2
same,b-wave amplitude,"C57BL/6 wild-type mice; adult C57BL/6 wild-type mice, KUS121 for 7 days, saline 425.8 ± 92.9, P = 0.86, in µV (unit assumed)",420.8 ± 52.6
same,change in the amplitude of a- and b-waves vs saline,C57BL/6 wild-type mice; adult wild-type mice,no significant differences
same,IC50,recombinant VCP,0.2 to 0.3 µM and 0.33 µM
same,dose dependence of protective effect,HeLa cells [2],dose-dependent
